{
  "source": "patent US20080085338A1",
  "about": "“Pet Food” (priority 2005, published 2008)",
  "key": {"[1]": {"test_system": "bacteria taken from the feline oral cavity", "experiment": "in vitro antibacterial activity", "assay_type": "cell-based", "protocol": "Periodontopathic conditions are the most common disease in dogs and cats. Especially in cats, prophylaxis is usually limited to professional dental cleaning under anaesthesia. Special diets which reduce plaque and calculus accumulation have been formulated to extend the period of time between professional dental cleanings. The study was conducted to determine the effect of EGCG in a regular dry diet on the oral health of cats. In addition, the in vitro antibacterial activity of the substance and its effect on the antioxidant status of cats were evaluated. […] With a view to achieving better in vivo results, a change in the dosage, and possibly also a change in the mode of administration, can be considered. Further, the active ingredient can be administered in higher concentration, or in such a way as to prolong the time of its contact with the oral cavity. […] This was investigated as a secondary target variable."}, "[2]": {"experiment": "28-day feeding study in cats, antioxidant status", "assay_type": "in vivo", "conditions": "dry cat food with 227 mg/kg of EGCG, 28 days, compared with control group", "protocol": "Periodontopathic conditions are the most common disease in dogs and cats. Especially in cats, prophylaxis is usually limited to professional dental cleaning under anaesthesia. Special diets which reduce plaque and calculus accumulation have been formulated to extend the period of time between professional dental cleanings. The study was conducted to determine the effect of EGCG in a regular dry diet on the oral health of cats. In addition, the in vitro antibacterial activity of the substance and its effect on the antioxidant status of cats were evaluated. The substance under investigation was sprayed on a standard dry cat food. The supplemented diet contained 227 mg/kg of EGCG. 18 cats were made available for the feeding study, being assigned either to a control group or a study group, each group containing 9 cats. At the beginning of the trial, which was conducted over a period of 28 days, the oral health status of the cats was examined using various indices and tests, and samples from the oral cavity were obtained for bacteriological analysis. In addition, blood samples were taken to determine the antioxidant status of the animal. The examinations were followed by a coronal cleaning (scaling and polishing) to ensure that the study period began with no plaque or calculus present on tooth surfaces (“clean tooth” model). […]"}},
  "data": [
    {"smiles": "O=C(O[C@@H]1Cc2c(O)cc(O)cc2O[C@@H]1c1cc(O)c(O)c(O)c1)c1cc(O)c(O)c(O)c1", "note": "[Epigallocatechingallate]", "values": [
      {"measurement": "inhibition of growth of bacteria taken from the feline oral cavity", "setting": "[1]", "result": "able to inhibit the growth bacteria taken from the feline oral cavity in vitro"},
      {"measurement": "effect on the antioxidant status of the cats", "setting": "[2]", "result": "positive effect on the antioxidant status of the cat"}
    ]}
  ]
}
